Source: ChEMBL document CHEMBL2434836, “Studies on substituted benzo[h]quinazolines, benzo[g]indazoles, pyrazoles, 2,6-diarylpyridines as anti-tubercular agents” (Bioorg Med Chem Lett, 2013)

Test system: Mycobacterium tuberculosis
Assay: Antitubercular activity against Mycobacterium tuberculosis H37Rv assessed as growth inhibition by micro plate alamar blue assay
Format: functional
Compound `CCSc1nc(Cl)c(C#N)c(-c2ccc(F)cc2F)n1` has an MIC of 0.78 mg/L.
In the case of `CCOC(=O)CCCOc1ccc(-c2nc(N)nc3c2CCc2cc(OC)ccc2-3)cc1`, the MIC is reported as 50 µM.
Work on `NNC(=O)c1ccncc1` [ISONIAZID] yielded an MIC of 0.2 µM.
`COc1ccc2c(c1)CCc1c(-c3ccc(OCCN(C)C)cc3)nc(N)nc1-2` gave an MIC of 100 µM.
For `Cc1ccc(-c2cc(N3CCCCC3)c(C#N)c(-c3ccccc3)n2)cc1`, the MIC was > 200 µM.
`CC1=NN(C(=O)c2cc(-c3ccc(Cl)cc3)n[nH]2)C(=O)/C1=N/Nc1cccc(F)c1` gave an MIC of 0.35 mg/L.
In the case of `CO[C@H]1/C=C/O[C@@]2(C)Oc3c(C)c(O)c4c(O)c(c(/C=N/N5CCN(C)CC5)c(O)c4c3C2=O)NC(=O)/C(C)=C\C=C\[C@H](C)[C@H](O)[C@@H](C)[C@@H](O)[C@@H](C)[C@H](OC(C)=O)[C@@H]1C` [RIFAMPIN], the MIC is reported as 2 µM.
In the case of `COc1ccc(-c2cc(/C(C#N)=C/N(C)C)n[nH]2)cc1`, the MIC is reported as 100 µM.
In the case of `N#Cc1c(N2CCCCC2)cc(-c2ccccc2)nc1-c1ccccc1`, the MIC is reported as > 200 µM.
In the case of `COc1ccc2c(c1)CCc1c(-c3ccc(O)cc3)nc(N)nc1-2`, the MIC is reported as > 200 µM.
In the case of `N#CCc1cc(-c2ccc(Br)cc2)[nH]n1`, the MIC is reported as 25 µM.
For `COc1ccc2c(c1)CCC1C2=NN(C(C)=O)C1c1ccc(O)cc1` (configuration not stated), the MIC was > 200 µM.
`COc1ccc2c(c1)CCc1c(-c3ccc(OCCN4CCCC4)cc3)nc(N)nc1-2` gave an MIC of 200 µM.
For `COc1ccc(-c2cc(CC#N)n[nH]2)cc1`, the MIC was 200 µM.
With `CN(C)/C=C(\C#N)c1cc(-c2ccc(Cl)cc2)[nH]n1` the MIC was > 200 µM.
`CN[C@@H]1[C@H](O[C@H]2[C@H](O[C@H]3[C@H](O)[C@@H](O)[C@H](N=C(N)N)[C@@H](O)[C@@H]3N=C(N)N)O[C@@H](C)[C@]2(O)C=O)O[C@@H](CO)[C@H](O)[C@H]1O` [STREPTOMYCIN] gave an MIC of 6 µM.
In the case of `COc1ccc2c(c1)CCC1C2=NN(C(C)=O)C1c1ccc(OCCN2CCCC2)cc1` (configuration not stated), the MIC is reported as 200 µM.
`COc1ccc2c(c1)CCc1c(-c3ccc(OCCCCCC(=O)NN)cc3)nc(N)nc1-2` gave an MIC of 200 µM.
In the case of `Cc1ccc(-c2cc(/C(C#N)=C/N(C)C)n[nH]2)cc1`, the MIC is reported as > 200 µM.
In the case of `N#CCc1cc(-c2ccc(Cl)cc2)[nH]n1`, the MIC is reported as > 200 µM.
For `NC(=O)c1c(N2CCCCC2)cc(-c2ccc(Br)cc2)nc1-c1ccccc1`, the MIC was > 200 µM.
Compound `CCOC(=O)CCCCCOc1ccc(-c2nc(N)nc3c2CCc2cc(OC)ccc2-3)cc1` has an MIC of 200 µM.
With `COc1ccc2c(c1)CCc1c(-c3ccc(OC(C)CN(C)C)cc3)nc(N)nc1-2` (configuration not stated) the MIC was 200 µM.
Work on `CCOC(=O)CCCCOc1ccc(-c2nc(N)nc3c2CCc2cc(OC)ccc2-3)cc1` yielded an MIC of 200 µM.
For `CN(C)/C=C(\C#N)c1cc(-c2ccc(Br)cc2)[nH]n1`, the MIC was > 200 µM.
In the case of `N#Cc1c(N2CCCCC2)cc(-c2ccc(Br)cc2)nc1-c1ccccc1`, the MIC is reported as > 200 µM.
With `COc1ccc2c(c1)CCc1c(-c3ccc(OCCCC(=O)NN)cc3)nc(N)nc1-2` the MIC was 200 µM.
Compound `COc1ccc2c(c1)CCC1C2=NN(C(C)=O)C1c1ccc(OCCN(C)C)cc1` (configuration not stated) has an MIC of 200 µM.
In the case of `COc1ccc(-c2cc(N3CCCCC3)c(C#N)c(-c3ccccc3)n2)cc1`, the MIC is reported as > 200 µM.
With `Cc1ccc(-c2cc(N3CCOCC3)c(C#N)c(-c3ccccc3)n2)cc1` the MIC was > 200 µM.
With `O=c1nc2ccccn2cc1-c1cc(-c2ccccc2)[nH]n1` the MIC was > 200 µM.
For `COc1ccc2c(c1)CCc1c(-c3ccc(OCCN4CCCCC4)cc3)nc(N)nc1-2`, the MIC was 50 µM.
With `N#Cc1c(N2CCCCC2)cc(-c2ccc(Cl)cc2)nc1-c1ccccc1` the MIC was > 200 µM.
With `CCOC(=O)/C(C#N)=C(\CC(=O)c1ccccc1)N1CCCCC1` the MIC was > 200 µM.
With `COc1ccc(-c2cc3ccnc(-c4ccccc4)n3n2)cc1` the MIC was > 200 µM.
`COc1ccc2c(c1)CCC1C2=NN(C(C)=O)C1c1ccc(OC(C)CN(C)C)cc1` (configuration not stated) showed an MIC of 200 µM.
In the case of `CCN(CC)CCOc1ccc(C2C3CCc4cc(OC)ccc4C3=NN2C(C)=O)cc1` (configuration not stated), the MIC is reported as 200 µM.
For `COc1ccc2c(c1)CCC1C2=NN(C(C)=O)C1c1ccc(OCCN2CCCCC2)cc1` (configuration not stated), the MIC was > 200 µM.
For `Cc1ccc(-c2cc(CC#N)n[nH]2)cc1`, the MIC was > 200 µM.
Work on `COc1ccc2c(c1)CCc1c(-c3ccc(OCCCCC(=O)NN)cc3)nc(N)nc1-2` yielded an MIC of 200 µM.
`CN(C)/C=C(\C#N)c1cc(-c2ccccc2)[nH]n1` showed an MIC of 200 µM.

Test system: not listed separately
Assay: Cytotoxicity against human THP1 cells after 24 hrs by MTT assay
Format: cell-based, THP-1
For `CCOC(=O)CCCOc1ccc(-c2nc(N)nc3c2CCc2cc(OC)ccc2-3)cc1`, the CC50 at 24 h was 200 µM.
Work on `COc1ccc2c(c1)CCc1c(-c3ccc(OCCN(C)C)cc3)nc(N)nc1-2` yielded a CC50 at 24 h of 200 µM.
In the case of `COc1ccc(-c2cc(/C(C#N)=C/N(C)C)n[nH]2)cc1`, the CC50 at 24 h is reported as > 200 µM.
In the case of `N#CCc1cc(-c2ccc(Br)cc2)[nH]n1`, the CC50 at 24 h is reported as > 200 µM.
For `COc1ccc2c(c1)CCc1c(-c3ccc(OCCN4CCCCC4)cc3)nc(N)nc1-2`, the CC50 at 24 h was 200 µM.

Test system: not listed separately
Assay: Safety index, ratio of CC50 for human THP1 cells to MIC for Mycobacterium tuberculosis H37Rv
Format: toxicity, cell-based, THP-1
Compound `N#CCc1cc(-c2ccc(Br)cc2)[nH]n1` has a selectivity ratio of 8.
